{"source": "paper PMC5862576", "about": "“Mitochondrial fission as a driver of stemness in tumor cells: mDIVI1 inhibits mitochondrial function, cell migration and cancer stem cell (CSC) signalling” (Oncotarget, 2018)", "key": {"Hedgehog signalling": {"tested_on": "Hedgehog signalling", "experiment": "Luciferase reporter assay MCF7-GFP-GLI(luc)", "assay_type": "cell-based, Human", "conditions": "50 µM, 2 and 5 days", "description": "The Cignal Lenti reporter assay (luc) was used to monitor the activity of several signalling pathways in MCF7-GFP cells as explained previously. Luciferase Assay System (E1501, Promega) was performed according to manufacturer’s instructions. 1 × 10^4 MCF7 were seeded in black-walled 96 well plates. When cells were attached, drug treatments were added for 18, 48 hours and 5 days. After treatment, Luciferase Assay was performed according to manufacturer’s instructions and light signal was acquired in the Xenogen VivoVision IVIS Lumina. Results were normalized by SRB staining of cells grown in 96-well plates in parallel.\nSRB (S9012, Sigma) measures total biomass by staining cellular proteins. After treatment, cells were fixed in 10% tricloroacetic acid (T9159, Sigma) for 1 hour at 4° C, stained with SRB (S9012, Sigma) for 15 minutes, and washed 3 times with 1% acetic acid (27225, Sigma). The incorporated die was solubilized with 10 mM Tris Base, pH 8.8 (T1503, Sigma). Absorbance was spectrophotometrically measured at 562 nm in a FluoStar Omega plate reader (BMG Labtech). Background measurements were subtracted from all values."}, "A549 lung cancer": {"tested_on": "A549 lung cancer", "experiment": "Tumorsphere formation assay, A549", "assay_type": "cell-based", "conditions": "five days", "description": "A single cell suspension was prepared using enzymatic (1× Trypsin-EDTA, T3924, Sigma Aldrich), and manual disaggregation (25 gauge needle). Cells were plated at a density of 5000 cells/well in tumorsphere media (DMEM-F12/B27/EGF (20ng/ml)/Pen-Strep) in non-adherent conditions, in 6-well plates coated with (2-hydroxyethylmethacrylate) (poly-HEMA, P3932, Sigma) in the presence of mDIVI1 or vehicle. After 5 days of culture in a humidified incubator at 37° C, tumorspheres bigger than 50 μm were counted using an eye piece graticule."}, "MCF7 cells": {"tested_on": "MCF7 cells", "experiment": "Total ROS (CM-H2DCFDA, flow cytometry)", "assay_type": "cell-based, Human", "conditions": "24, 48 hours or 5 days", "description": "For both assays, 2 × 10^5 MCF7 cells were seeded in 35 mm plates. When cells were attached, either vehicle or mDIVI1 were added to the cells for 24, 48 hours or 5 days in triplicate. Reactive oxygen species (ROS) production was measured using CM-H2DCFDA (C6827, Invitrogen). Briefly, cells were incubated for 20 minutes at 37° C with 1 µM CM-H2DCFDA diluted in PBS and then placed in complete media for 20 minutes at 37° C in the dark, to render the dye fluorescent, according to the manufacturer. Mitochondrial superoxide was measured using MitoSOX Red Mitochondrial Superoxide Indicator (M36008, ThermoFisher Scientific). Briefly, cells were incubated for 10 minutes at 37° C in the dark with 5 µM MitoSOX diluted in PBS, according to the manufacturer. ROS signal and MitoSOX signal was quantified as mean fluorescent intensity of the viable cell population in a Fortessa flow cytometer (BD Bioscience). Results were analysed using FlowJo software."}}}
{"smiles": "COc1cc(-n2c(=S)[nH]c3ccccc3c2=O)c(Cl)cc1Cl", "note": "[mDIVI1, 3-(2,4-Dichloro-5-methoxyphenyl) 2,3-dihydro 2-thioxo-4(1H) quinazolinone]", "values": [{"measurement": "Hedgehog/GLI pathway luciferase activity", "setting": "Hedgehog signalling", "value": "strikingly caused the inhibition"}, {"measurement": "decrease of A549 tumorsphere forming capacity", "setting": "A549 lung cancer; 10 µM", "value": "> 15", "unit": "%"}, {"measurement": "decrease of A549 tumorsphere forming capacity", "setting": "A549 lung cancer; 50 µM", "value": "> 80", "unit": "%"}, {"measurement": "general oxidative stress levels (total ROS)", "setting": "MCF7 cells", "value": "did not change"}]}
